From US20210361581A1, “ADDITIVE FOR A POWDER MATERIAL INTENDED FOR COMPACTION INTO SHAPED BODIES” (IOI OLEO GMBH, priority 2018, published 2021)

Key:
[1] = Lopes et al., J. Pharm. Sci. 104: 4257-4265, 2015; cited from earlier work
[2] = Contact angle with water (hydrophobicity); assay type: physicochemical; conditions: 16 weeks at room temperature (20° C.) and at 40° C., against start value
Description: An advantageous property of the PGFEs for an additive in accordance with claim 1 which should be considered is the hydrophobicity, which can be determined by determining the contact angle. The determination of the hydrophobicity is carried out by determining the contact angle between the PGFE in the solid physical state and a droplet of purified water. According to Young's equation, cos θ=(γSV−γSL)/γLV, wherein γSL is the interfacial tension between the PGFE and water, γLV is the interfacial tension of the water droplet and γSV is the surface tension between the PGFE and the surrounding air. θ is the contact angle. Thus, the larger the contact angle θ, the higher is the surface tension between the PGFE and the water and the higher is the hydrophobicity of the PGFE under investigation. The contact angles for the proposed polyglycerol fatty acid esters also correlate with the HLB value which is often used in pharmaceutical technology, which is on a scale of 0 to 20 and provides information regarding the ratio of lipophilic to hydrophilic molecular fractions, wherein the hydrophilic fraction increases with increasing HLB value. […]

CCCCCCCCCCCCCCCCCC(=O)OCC(COC(=O)CCCCCCCCCCCCCCCCC)OC(=O)CCCCCCCCCCCCCCCCC [glycerol tristearate]
increase in the crystal thickness after complete transformation of a- into b-modification [1]: approximately 67% | variation (deviation) of contact angle with water after 16 weeks [2]: 40 °
